In patent US20260115237A1, “PROBIOTIC COMPOSITION FOR PREVENTING AND TREATING ANTI-TUMOR TREATMENT-RELATED DIARRHEA AND USE THEREOF” (SICHUAN ANAEROBIC BIOTECHNOLOGY CO., LTD., priority 2023, published 2026):
“Also recorded” adds a separate entry of the source.

Experiments:
Format in all cases: in vivo
[1] = tested on: ZO-1; assay: qPCR of colon tissue, 5-FU-induced diarrhea mice; details: 20 mg/kg i.g.; 5-FU model
From the text: (§1) (1) Experimental design: Ninety-six SPF-grade male Balb/c mice weighing 22-24 g (purchased from Beijing Vital River Laboratory Animal Technology Co., Ltd.) were housed in an SPF-grade animal room. Based on the initial body weight, the mice were randomly divided into 8 groups of 12: a normal control group, a model control group, a positive control loperamide group, a positive control Zhengchangsheng group, a high-dose bacterial composition group, a medium-high-dose bacterial composition group, a medium-dose bacterial composition group, and a low-dose bacterial composition group. The aforementioned 8 groups were intragastrically given normal saline (0.2 mL/mouse/day), lyoprotectant (0.2 mL/mouse/day), loperamide (purchased from Henan Zhongjie Pharmaceutical Co., Ltd., 20 mg/kg body weight/mouse/day), Zhengchangsheng (containing viable Bacillus licheniformis, Northeast Pharmaceutical Group Co., Ltd., 2×10^8 CFU/mouse/day), high-dose bacterial composition (1×10^9 CFU/mouse/day), medium-high-dose bacterial composition (1×10^8 CFU/mouse/day), medium-dose bacterial composition (1×10^7 CFU/mouse/day), and low-dose bacterial composition (1×10^6 CFU/mouse/day), respectively. The overall experimental period was 9 days, designated as D1 to D9. Intragastric administration was performed for 8 consecutive days from D1 to D8. Modeling was started on D3. The mice in the normal control group received abdominal injection of normal saline at 0.2 mL/mouse, while the mice in all other groups were intraperitoneally injected with 5-FU (5-fluorouracil, purchased from Tianjin Pharma Heping (Tianjin) Pharmaceutical Co., Ltd.; specification: 10 mL/vial, 0.25 g/10 mL) at 30 mg/kg body weight for 4 consecutive days to induce a CID mouse model. The mice were dissected on D9.
(§2) During the experimental period, the body weight of the animals was measured daily, and general observations were recorded (the observation items included but were not limited to the animals' appearance signs, behaviors and activities, respiration, glandular secretion, fecal condition, etc.). The diarrhea condition of each animal after modeling was specifically observed and then recorded and scored. After euthanasia was performed at the end of the experiment, middle colon tissue samples were collected for qPCR detection of genes related to inflammatory factors (TNF-α and IL-1β) and tight junction proteins (ZO-1 and Occludin).
(§3) (3) qPCR detection: The total RNA was extracted from colon tissues of the mice in each group using the Trizol method and then reverse-transcribed into cDNA. The cDNA was stored at −20° C. for later use. The relative mRNA transcriptional levels of the genes encoding the pro-inflammatory factors IL-1β and TNF-α, as well as the tight junction proteins ZO-1 and Occludin-1, in the colon of the mice in each group were detected using the qRT-PCR method (the primer sequences are shown in Table 7, and the internal reference gene was β-actin). Reaction program: 1) 95° C. for 3 min; 2) 95° C. for 10 s, 60° C. for 30 s, 95° C. for 15 s, and 60° C. for 1 min, 40 cycles in total; and 3) 95° C. for 10 s. Data analysis was performed using the 2^−ΔΔCT method.

[2] = tested on: IL-1β; assay: qPCR of colon tissue, 5-FU-induced diarrhea mice; details: 20 mg/kg i.g.; 5-FU model
From the text: as §1, §2, §3

[3] = tested on: Occludin; assay: qPCR of colon tissue, 5-FU-induced diarrhea mice; details: 20 mg/kg i.g.; 5-FU model
From the text: as §1, §2, §3

[4] = tested on: TNF-α; assay: qPCR of colon tissue, 5-FU-induced diarrhea mice; details: 20 mg/kg i.g., 5-FU model
From the text: as §1, §2, §3

[5] = tested on: 5-FU-induced tumor-bearing CID mice; assay: Blood routine examination, 5-FU-induced tumor-bearing mouse model; details: 20 mg/kg i.g.; tumor-bearing 5-FU model
Protocol: (§4) Experimental design: Fifty male BALB/c mice (purchased from Chengdu GemPharmatech Co., Ltd.) were housed in an SPF-grade animal room. CT26 cells (purchased from Beijing BeNa Culture Collection) were subcutaneously inoculated into the right flank of each mouse at a dose of 5×10^6 cells/mouse in a volume of 0.1 mL. When the tumor volume reached about 100-150 mm^3, 42 mice were selected for the subsequent experiment. Based on the tumor volume, the aforementioned 42 mice were randomly divided into 7 groups of 6. The aforementioned 7 groups were as follows: a normal control group (administration regimen: lyoprotectant at 0.2 mL/mouse/day), a model control group (administration regimen: lyoprotectant at 0.2 mL/mouse/day), a positive control loperamide group (administration regimen: loperamide at 20 mg/kg body weight), a Zhengchangsheng group (administration regimen: Bacillus licheniformis at 2×10^8 CFU/mouse/day), a high-dose bacterial composition group (administration regimen: bacterial composition at 1×10^9 CFU/mouse/day), a medium-dose bacterial composition group (administration regimen: bacterial composition at 1×10^8 CFU/mouse/day), and a low-dose bacterial composition group (administration regimen: bacterial composition at 1×10^7 CFU/mouse/day). The day of grouping was designated as day 1 (D1) of the experiment, and intragastric administration was started on day 1 (D1) and performed once daily (QD) for 9 consecutive days. On days 3, 4, 5, and 6 of administration, the normal control group was intraperitoneally injected with normal saline at 0.2 mL/mouse, while the mice in all other groups were intraperitoneally injected with 5-FU (50 mg/kg body weight, 10 mL/kg body weight) for modeling. Compared with the normal control group, the tumor volumes of mice in each group were reduced after 5-FU injection.
The specific administration regimens are detailed in Table 18. After the end of the experiment, whole blood samples were collected from animals in each group through enucleation, and then subjected to blood routine examination using a five-classification blood cell analyzer for animals (Shenzhen Dymind Biotechnology Co., Ltd.).

[6] = Body weight, radiation enteritis model mice; details: 15 mg/kg i.g.
Protocol: (§5) (1) Experimental design: Eighty male C57BL/6 mice (purchased from Chengdu GemPharmatech Co., Ltd.) were housed in an SPF-grade animal room. Based on the body weight, the aforementioned mice were randomly divided into 8 groups of 10: a normal control group (administration regimen: normal saline at 0.2 mL/mouse/day), a model control group (administration regimen: lyoprotectant at 0.2 mL/mouse/day), a loperamide group (administration regimen: loperamide at 15 mg/kg body weight), an LGG (Lactobacillus rhamnosus GG, Shaanxi Zelang Biotechnology Co., Ltd.) group (administration regimen: LGG at 1×10^9 CFU/mouse/day), a high-dose bacterial composition group (administration regimen: bacterial composition at 1×10^9 CFU/mouse/day), a medium-high-dose bacterial composition group (administration regimen: bacterial composition at 1×10^8 CFU/mouse/day), a medium-dose bacterial composition group (administration regimen: bacterial composition at 1×10^7 CFU/mouse/day), and a low-dose bacterial composition group (administration regimen: bacterial composition at 1×10^6 CFU/mouse/day). Except for the normal control group, all other groups of mice were subjected to a single whole abdominal X-ray irradiation at a dose of 11.5 Gy. The overall experimental period was 18 days, designated as D1 to D18. Each group was subjected to intragastric administration once daily for 17 consecutive days. Seven days after administration, irradiation was performed on D8, and dissection was conducted on D18.
(§6) During the experimental period, the body weight of the animals was measured daily, and general observations were recorded (the observation items included but were not limited to the animals' appearance signs, behaviors and activities, respiration, glandular secretion, fecal condition, etc.). The diarrhea condition of each animal after irradiation modeling was specifically observed and then recorded and scored. At the end of the experiment, the animals were euthanized, and the colorectal parts were taken, directly fixed in a 10% formaldehyde solution, stained with HE, and then subjected to pathological examination.

[7] = tested on: mice with 5-FU-induced diarrhea; assay: Diarrhea scoring, mice with 5-FU-induced diarrhea (CID model); details: 20 mg/kg i.g.; 5-FU model
Protocol: Pdist-1, Lferm-1, Lsali-1, Eaviu-1, and Bbifi-1 were each inoculated into the corresponding bacterial powder preparation medium, and then anaerobically cultured at 37° C. and 90 rpm for 16-24 h to obtain a primary seed solution. Subsequently, the five primary seed solutions were each transferred to the corresponding bacterial powder preparation medium, and then anaerobically cultured at 37° C. and 90 rpm for 10-15 h to obtain a secondary seed solution. The five secondary seed solutions were each pumped into a fermenter containing the corresponding bacterial powder preparation medium using a peristaltic pump, and then subjected to fermentation culture. After the fermentation was stopped, the bacterial cells of each strain were collected by centrifugation. Each corresponding lyoprotectant was added according to a weight ratio of the bacterial sludge to the lyoprotectant of 1:1 to 1:2, and the mixture was well mixed to emulsify the bacterial sludge. Each bacterial sludge was lyophilized and pulverized to obtain a bacterial powder. An appropriate amount of each pulverized bacterial powder was taken for determination of viable count. The bacterial powders of the strains were mixed at equal CFU concentrations based on the viable counts to obtain a bacterial composition powder. Finally, the bacterial composition powder was prepared into a bacterial suspension using normal saline for an animal experiment. The bacterial suspension was diluted with normal saline to obtain bacterial compositions with different bacterial doses. […]
During the experimental period, the body weight of the animals was measured daily, and general observations were recorded (the observation items included but were not limited to the animals' appearance signs, behaviors and activities, respiration, glandular secretion, fecal condition, etc.). The diarrhea condition of each animal after modeling was specifically observed and then recorded and scored. […]

[8] = tested on: mice with radiation enteritis; assay: Colorectal pathological examination (HE), radiation enteritis model mice; details: 15 mg/kg i.g.
Protocol: as §5, §6
(3) Pathological examination of intestinal tissues: The colorectal parts were directly fixed in a 10% formaldehyde solution, stained with HE, and then subjected to pathological examination.

[9] = tested on: 5-FU-induced tumor-bearing CID mice; assay: Diarrhea scoring, 5-FU-induced tumor-bearing CID mice; details: 20 mg/kg i.g., tumor-bearing 5-FU model
From the text: The bacterial composition used in Examples 10-12 were obtained by mixing five strains at equal CFU concentrations according to the method in Example 9. The CFU of the bacterial composition referred to in Examples 10-12 was the total CFU of the five strains.
as §4

[10] = tested on: mice with radiation enteritis; assay: Diarrhea scoring, radiation enteritis model mice; details: 15 mg/kg i.g.

Compound: CN(C)C(=O)C(CCN1CCC(O)(c2ccc(Cl)cc2)CC1)(c1ccccc1)c1ccccc1 [Loperamide, loperamide]
- ZO-1 relative mRNA transcription level in colon tissue [1]: 0.80
- IL-1β relative mRNA transcription level in colon tissue [2]: 1.26
- Occludin relative mRNA transcription level in colon tissue [3]: 0.90
- TNF-a relative mRNA transcription level in colon tissue [4]: 1.05
- TNF-a relative mRNA transcription level in colon tissue ([4]; listed as loperamide): significantly reduce
- Hematocrit [5]: 43.17 ± 0.99%
- Lymphocyte count [5]: 1.18 ± 0.29 10^9/L
- Platelet count [5]: 216.67 ± 21.53 10^9/L
- Red blood cell count [5]: 9.39 ± 0.23 10^12/L
- White blood cell count [5]: 1.24 ± 0.30 10^9/L
- D1 body weight [6]: 23.11 ± 0.20 g
- D14 body weight [6]: 19.79 ± 0.14 g
- D14 body weight change rate [6]: −14.37 ± −10.00%
- D17 body weight [6]: 20.92 ± 0.16 g
- D17 body weight change rate [6]: −9.48 ± −6.38%
- D17 body weight ([6]; listed as loperamide): a trend toward restoring
- D8 diarrhea score [7]: 0.08 ± 0.08
- D9 diarrhea score [7]: 0.17 ± 0.11
- Total diarrhea score [7]: 0.25 ± 0.18
- Goblet cell (colorectal pathological score) [8]: 1.60 ± 0.08
- Inflammatory infiltration (colorectal pathological score) [8]: 2.00 ± 0.00
- Mucosal damage (colorectal pathological score) [8]: 1.60 ± 0.08
- Pathological score (colorectal) [8]: 5.20 ± 0.15
- Pathological score (colorectal) ([8]; listed as loperamide): an improvement trend
- D1-D9 total diarrhea score [9]: 4.67 ± 0.56
- D6 diarrhea score [9]: 0.33 ± 0.21
- D7 diarrhea score [9]: 1.00 ± 0.00
- D8 diarrhea score [9]: 1.33 ± 0.21
- D9 diarrhea score [9]: 2.00 ± 0.37
- D1-D9 total diarrhea score ([9]; listed as loperamide): a significant reduction; also recorded: significantly ameliorate diarrhea
- D8 diarrhea score ([9]; listed as loperamide): a significant reduction
- D17 total diarrhea score [10]: 9.80 ± 0.59
- D17 total diarrhea score ([10]; listed as loperamide): significant improvements
